Common to all, as to test: inhibition of tumour cell growth, NCI panel, 48 h
For assay [1], the system named is HCT-15 colon.
Assay [2] concerns HOP-92 NSCLC.
The test system of assay [3] is HS 578T breast.
Assay [4] concerns MCF7 breast.
The test system of assay [5] is MDA-MB-231 breast.
The test system of assay [6] is MOLT-4 leukemia.
Assay [7] deals with NCI-H23 lung.
Assay [8] deals with RXF 393 renal.
The test system of assay [9] is HT29 colon.
In assay [10] the test system is SR leukemia.

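Grown in 96-well plates, cells were treated for 48 hours with each compound at five concentrations. Insufficient inhibition: endpoint recorded as highest concentration tested. The concentration for 50% growth inhibition is given as GI50. Definition used: TGI = concentration required for complete inhibition of growth.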

As for `CC(=O)c1ccc(NC(=O)CSc2nnc(-c3cc(-c4ccc(C)cc4)nc4ccccc34)o2)cc1`, the GI50 in assay [1] is 4.95 µM; in assay [2], 2.59 µM; in assay [3] it was 4.06 µM; in assay [4] it was 2.69 µM; in assay [5] it was 2.3 µM; in assay [6], 3.31 µM. Also, the GI50 in [7] is 3.73 µM; in [8] it was 2.01 µM. Further, the TGI was over 100 µM in [1]; 6.3 µM in assay [2]; 39.4 µM in assay [3]; over 100 µM in assay [4]; 5.47 µM in assay [5]; over 100 µM in assay [6]. For the same compound, the TGI amounted to 61.3 µM in [7] and 4.26 µM in [8].
With `CCCCCCCC/C=C/CCCCCCCC1=NCC[N+]1(CCO)CCO`, the GI50 was 3.16 µM in assay [1]; 1.62 µM in assay [2]; 2.16 µM in [3]; 1.38 µM in assay [9]; 3.94 µM in assay [4]; 2.47 µM in assay [5]. In addition, the GI50 is 2.23 µM in assay [6], 3.05 µM in assay [7] and 1.73 µM in assay [8]. Further, the TGI in [1] is 11 µM; in [2], 5.53 µM; in assay [3], 7.66 µM; in assay [9] it was 3.25 µM; in assay [4] it was 18.6 µM; in assay [5], 8.81 µM. For the same compound, the results for the TGI in assay [6], in assay [7] and in assay [8] were 6.58 µM, 16 µM and 4.2 µM, respectively.
On to `COC(=O)c1ccc2c(c1)nc(-c1cc3ccccc3[nH]c1=O)n2-c1cc(C(C)(C)C)[nH]n1`, for which the GI50 in assay [3] is 0.574 µM; in assay [9], 1.34 µM; in assay [4], over 100 µM; in [5], 4.13 µM; in assay [6], 0.793 µM; in assay [7], 2.64 µM. The GI50 is 2.83 µM in [8] and 12.8 µM in assay [10]. Moreover, the TGI in assay [3] was over 58.4 µM; in [9], over 100 µM; in assay [4] it was over 100 µM; in assay [5], over 100 µM; in assay [6] it was over 100 µM; in assay [7] it was over 100 µM. The TGI in assay [8] was over 29.8 µM; in assay [10], over 100 µM.
With `CCC(C)n1cc(C)c2c(C(=O)NCc3c(C)cc(C)[nH]c3=O)cc(Br)cc21` (stereo not drawn), the GI50 was 29 µM in assay [1]; 35 µM in assay [3]; 41.5 µM in assay [9]; 29.4 µM in assay [4]; 45 µM in assay [5]; 26.2 µM in assay [6]. In addition, the GI50 in assay [7] was 76.3 µM; in assay [8], 27.6 µM; in assay [10], 32.9 µM. Moreover, the TGI is over 100 µM in [1]; over 100 µM in [3]; over 100 µM in [9]; over 100 µM in [4]; over 100 µM in [5]; 71.6 µM in assay [6]. For the same compound, the TGI in [7], in assay [8] and in [10] was over 100 µM each time.
As to `CC(C)C1OC(=O)C=C1Sc1ccccc1` (stereo not drawn), the TGI in [1], in assay [3], in [9], in assay [4], in assay [5] and in assay [6] was over 100 µM in each case. The TGI in [8] and in [10] was over 100 µM throughout.
Take `Cc1cc2cc3cc(C)c(N(C)C)cc3nc2cc1N(C)C`: the GI50 in [1] was 12.1 µM; in [2], 1.83 µM; in assay [3], 1.89 µM; in [9], 1.55 µM; in [4], 1.76 µM; in assay [5], 2.33 µM. Also, the results for the GI50 in assay [6], in assay [7] and in assay [8] were 3.29 µM, 1.8 µM and 7.14 µM, respectively. In addition, the TGI in [1] was over 100 µM; in assay [2], 8.36 µM; in assay [3], 18.1 µM; in assay [9], 23.8 µM; in assay [4], over 100 µM; in [5], 7.59 µM. Further, the figures for the TGI in assay [6], in assay [7] and in assay [8] were over 100 µM, 20.8 µM and 31.2 µM, respectively.
On to `CCOC(=O)c1sc2nc3sc(N=Nc4ccc(Cl)cc4)c(O)n3c(=S)c2c1C`, for which the GI50 in assay [1] was 18.3 µM; in assay [2], 7.47 µM; in assay [3] it was 23.8 µM; in assay [9], 36.9 µM; in assay [4] it was 21.4 µM; in [6] it was over 100 µM. The figures for the GI50 in assay [7], in [8] and in [10] were 14.2 µM, 20.6 µM and over 100 µM, respectively. In addition, the TGI was 49.3 µM in [1]; 45.8 µM in assay [2]; 68.4 µM in assay [3]; over 100 µM in [9]; over 100 µM in assay [4]; over 100 µM in assay [6]. Further, the TGI in assay [7] is 42.4 µM; in assay [8], 90.4 µM; in [10], over 100 µM.
Turning to `COc1ccc(C(=O)c2ccc(OC)c(OC)c2OC)cc1`, the GI50 in assay [1] is 0.596 µM; in assay [2], 5.4 µM; in assay [3], 0.915 µM; in assay [9], 0.465 µM; in assay [4], 0.697 µM; in assay [5], 3.63 µM. For the same compound, the values for the GI50 in assay [6], in assay [7] and in assay [10] were 1.11 µM, 3.32 µM and 0.347 µM, respectively. The TGI in assay [1] is over 100 µM; in [2], over 100 µM; in assay [3], 3.65 µM; in [9], 33.5 µM; in [4], over 100 µM; in [5], over 100 µM. The TGI in assay [6], in assay [7] and in assay [10] was over 100 µM in each case.
For the compound `O=C(OCc1ccccc1)N1CCN(/[N+]([O-])=N/Oc2ccc([N+](=O)[O-])cc2[N+](=O)[O-])CC1`, the GI50 in assay [1] was 4.19 µM; in assay [3], 32.4 µM; in assay [9], 10.4 µM; in assay [4], 2.84 µM; in assay [5], 3.58 µM; in assay [6], 4.47 µM. Besides, the GI50 in assay [7] was 6.45 µM; in assay [8], 29.2 µM; in [10], 4.7 µM. Further, the TGI in [1] was 52.6 µM; in assay [3], 97.6 µM; in assay [9], over 100 µM; in [4] it was 8.87 µM; in [5] it was 9.48 µM; in assay [6] it was over 100 µM. The TGI is 44.8 µM in assay [7], 56.5 µM in assay [8] and over 100 µM in assay [10].

The record behind these values is PubChem BioAssay (NCI).
